{"source": "patent US20030224026A1", "about": "“Dermatological or cosmetic composition which includes aromatic nitroxide compounds and their use” (priority 2002, published 2003)", "key": {"[1]": {"experiment": "Peroxidation of unilamellar PC liposomes induced by Bu^tOOH/Cytochrome C, oxygen consumption (oxygraph)", "details": "for inhibition of oxygen consumption: 5 μM nitroxide added 80 s after onset, 2.4 mM unilamellar PC liposomes, PBS pH 7.4, 37° C., 6 minutes", "procedure": "Oxidation was induced by injecting at point A, 25 μl of Bu^tOOH 7.3 M and injecting at point B 25 μl of cytochrome C (1 mg protein/ml). Point C refers to the addition of 5 μM of the following compounds (if not specified otherwise):\nThe compounds are indicated with the following abbreviations: MC4, the compound with formula (I) in which R=C4 alkyl residue; DC4, the compound with formula (I) in which R=(X) and (X) contains R1=C4 methylenic alkyl residue; MC8, the compound with formula (I) in which R=C8 alkyl residue; DC8, the compound with formula (I) in which R=(X) and (X) contains R1=C8 methylenic alkyl residue; TEMPO and TDN. With reference to FIG. 2, the percentage inhibition of the consumption of oxygen in PC unilamellar liposome (2.4 mM) in 5 mM phosphate buffer saline, 0.1 mM EDTA, pH 7.4 at 37° C. to which 5 μM nitroxide compounds was added are reported.\nThe Applicant has selected certain nitroxide radicals as antioxidant agents following experimental tests. The antioxidant properties were studied in the laboratory in different biological systems. The systems employed are biological systems which mimic in vivo ones. The biological systems used are subjected to oxidative damage. Oxidative damage was induced in various ways. The Applicant carried out an experimental test to evaluate the peroxidation of unilamellar PC liposomes induced by the use of the Bu^tOOH/Cytochrome C system. […]\nAfter 80 seconds from the onset of peroxidation, the different nitroxide radicals at final concentration of 5 μM were added. […] The reaction was monitored for 6 minutes. For each nitroxide tested, the extent of inhibition of the consumption of oxygen was calculated. The value of inhibition was calculated in the following way: […]\nEach individual recording is reported in FIG. 1, since the rate of oxygen consumption before the addition of the antioxidant compounds at point C is always constant. From these experiments, the percentage inhibition of oxygen consumption was calculated by subtraction as reported above."}, "[2]": {"experiment": "Peroxidation of multilamellar PC liposomes with incorporated nitroxides, induced by Bu^tOOH/Cytochrome C, oxygen consumption", "details": "22 μM nitroxide incorporated inside 0.77 mM multilamellar liposomes; pH 7.4, 37° C., 5 minutes", "procedure": "The compounds are indicated with the abbreviations: MC4, DC4, TEMPO and TDN as defined for FIG. 2. With reference to FIG. 4, the percentage inhibition of the consumption of oxygen was obtained from measurements carried out on an oxygraph. The system studied consists of multilamellar PC liposomes which have nitroxides incorporated inside them ([…]) in 5 mM phosphate buffer saline, 0.1 mM EDTA, pH 7.4 at 37° C.\nThe Applicant carried out an experimental test to evaluate the peroxidation of multilamellar PC liposomes, induced through the Bu^tOOH/Cytochrome C system.\nThe liposomes employed in this experimental system contain inside them the antioxidant agents. […] The peroxidation of these liposomes was evaluated by monitoring the consumption of oxygen in a final volume of 1.8 ml and at a constant temperature of 37° C. in 5 mM of phosphate buffer saline, 0.1 mM EDTA, pH 7.4 as previously described.\nThe final concentration of the liposomes and of antioxidant agents, in the oxidation chamber, was 0.77 mM and 22 μM respectively. […] The consumption of oxygen was monitored for 5 minutes. For each of the nitroxides tested, the degree of suppression of oxygen consumption was calculated. […]"}}}
{"compound": "CC1(C)CCCC(C)(C)N1[O]", "note": "[TEMPO, 2,2,6,6-tetramethylpiperidine-1-oxyl]", "values": [{"measurement": "inhibition of oxygen consumption", "setting": "[1]", "value": "no protective effects"}, {"measurement": "protective effects against lipid peroxidation", "setting": "[1]; higher concentration than 5 μM, same experimental conditions", "value": "no protective effects"}, {"measurement": "inhibited peroxidation (percentage of inhibition of oxygen consumption)", "setting": "[2]", "value": "no effect"}]}
{"compound": "bis(2,2,6,6-tetramethylpiperidine-1-oxyl-4-yl)sebacate [TDN]", "values": [{"measurement": "inhibition of oxygen consumption", "setting": "[1]", "value": "lower inhibition values with respect to DC4"}, {"measurement": "inhibited peroxidation (percentage of inhibition of oxygen consumption)", "setting": "[2]", "value": 45, "unit": "%"}]}
